According to patent US8354403B2, “Pyrrolidine derived beta 3 adrenergic receptor agonists” (Merck Sharp & Dohme Corp., priority 2009, dated 2013):
Read-outs that look alike come from different tables or passages of the source. Values belong to the compound of their own block, whether it stands above or below them.

Molecular target: T1, human β3 adrenergic receptor (Homo sapiens, UniProt P13945)
T1 construct: expressed in transfected cells; host or cells: Chinese hamster ovary (CHO) cells, stably transfected
T1 sequence (P13945 whole entry): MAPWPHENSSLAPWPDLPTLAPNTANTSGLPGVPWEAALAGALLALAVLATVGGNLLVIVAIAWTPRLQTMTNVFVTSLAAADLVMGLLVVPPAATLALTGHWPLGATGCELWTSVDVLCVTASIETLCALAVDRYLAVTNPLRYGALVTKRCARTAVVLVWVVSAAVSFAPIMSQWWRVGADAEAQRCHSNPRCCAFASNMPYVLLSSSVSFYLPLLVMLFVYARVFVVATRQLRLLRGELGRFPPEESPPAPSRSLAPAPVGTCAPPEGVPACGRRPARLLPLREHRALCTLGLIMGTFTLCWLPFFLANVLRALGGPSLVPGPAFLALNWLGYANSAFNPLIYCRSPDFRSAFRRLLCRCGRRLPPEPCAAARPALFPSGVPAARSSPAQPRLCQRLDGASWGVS
Experiment: Beta-3 agonist in vitro functional assay: cAMP production (LANCE TR-FRET) in CHO cells stably transfected with the cloned β3 receptor
Format: cell-based
In short: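 CHO cells stably expressing the cloned receptor, in HEPES-buffered HBSS with BSA and 0.6 mM IBMX, 6,000 cells/well, exposed to compound for 30 min at RT. cAMP read by LANCE TR-FRET against a cAMP standard curve. Isoproterenol defines maximal stimulation.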

[1] = Table 8, Beta-3 agonist in vitro functional assay, read-out: Human β3 agonist functional activity
[2] = Table 9, Beta-3 agonist in vitro functional assay, read-out: Human β3 agonist functional activity
[3] = Table 10, Beta-3 agonist in vitro functional assay, read-out: Human β3 agonist functional activity
[4] = Table 5, cAMP, CHO cells, read-out: Human β3 agonist functional activity
[5] = Table 4, cAMP, CHO cells, read-out: Human β3 agonist functional activity
[6] = Table 11, cAMP, CHO cells, read-out: Human β3 agonist functional activity
[7] = Table 12, human β3 functional activity given as ranges, read-out: Human β3 agonist functional activity

- EC50 [1]: 100 to 999 nM
SMILES: O=C1NC2(CCN(C(=O)c3ccc(C[C@@H]4CC[C@H]([C@H](O)c5ccccc5)N4)cc3)CC2)CO1 [Example 271]

- EC50 [2]: 10 to 99.9 nM
SMILES: O=C(c1ccc(C[C@@H]2CC[C@H]([C@H](O)c3ccccc3)N2)cc1)N1CCN(S(=O)(=O)c2ccccc2)CC1 [Example 346]

- EC50 [3]: 10 to 99.9 nM
SMILES: CC(C(=O)N1CC=CCC1)N1CCN(C(=O)c2ccc(C[C@@H]3CC[C@H]([C@H](O)c4ccccc4)N3)cc2)CC1 (some centres unmarked) [Example 492]

- EC50 [2]: 1 to 9.9 nM
SMILES: O=C(c1ccc(C[C@@H]2CC[C@H]([C@H](O)c3ccccc3)N2)cc1)N1CCN(Cc2n[nH]c3ccccc23)CC1 [Example 405]

- EC50 [2]: 100 to 999 nM
SMILES: O=C(c1ccc(C[C@@H]2CC[C@H]([C@H](O)c3ccccc3)N2)cc1)N1CCN(c2nccnc2Cl)CC1 [Example 371]

SMILES: C[C@@H](c1ccccn1)N1C2CCC1C1CCC2N1C(=O)c1ccc(C[C@@H]2CC[C@H]([C@H](O)c3ccccc3)N2)cc1 [Example 526]
- EC50 (human β3 functional activity): 10 to 99.9 nM

- EC50 [1]: 100 to 999 nM
SMILES: Cc1nnc(C2(C3CCCCC3)CCN(C(=O)c3ccc(C[C@@H]4CC[C@H]([C@H](O)c5ccccc5)N4)cc3)CC2)o1 [Example 249]

- EC50 [3]: 10 to 99.9 nM
SMILES: CC(C(=O)NCc1ncco1)N1CCN(C(=O)c2ccc(C[C@@H]3CC[C@H]([C@H](O)c4ccccc4)N3)cc2)CC1 (some centres unmarked) [Example 462]

- EC50 [4]: 1 to 9.9 nM
SMILES: O=C(c1ccc(C[C@@H]2CC[C@H]([C@H](O)c3ccccc3)N2)cc1)N1CCC(S(=O)(=O)c2cccc(F)c2)CC1 [Example 130]

- EC50 (Table 7, cAMP, CHO cells, ranges as given for Tables 6 and 7, read-out: Human β3 agonist functional activity): 10 to 99.9 nM
SMILES: N#CC1(c2ncccn2)C2CN(C(=O)c3ccc(C[C@@H]4CC[C@H]([C@H](O)c5ccccc5)N4)cc3)CC21 (some centres unmarked) [Example 237]

- EC50 [1]: 1 to 9.9 nM
SMILES: O=C1CC2(CCN(C(=O)c3ccc(C[C@@H]4CC[C@H]([C@H](O)c5ccccc5)N4)cc3)CC2)S(=O)(=O)c2ccccc21 [Example 338]

- EC50 [5]: 10 to 99.9 nM
SMILES: O=C(c1ccc(C[C@@H]2CC[C@H]([C@H](O)c3ccccc3)N2)cc1)N1Cc2cocc2C1 [Example 26]

SMILES: C[C@@H](c1ccccn1)N1C2CCC1CN(C(=O)c1ccc(C[C@@H]3CC[C@H]([C@H](O)c4ccccc4)N3)cc1)C2 [Example 540]
- EC50 [6]: 100 to 999 nM

- EC50 [6]: 100 to 999 nM
SMILES: O=C(c1ccc(C[C@@H]2CC[C@H]([C@H](O)c3ccccc3)N2)cc1)N1CCN(c2ccccn2)C(=O)C1 [Example 546]

- EC50 [2]: 10 to 99.9 nM
SMILES: COC(=O)c1cccnc1N1CCN(C(=O)c2ccc(C[C@@H]3CC[C@H]([C@H](O)c4ccccc4)N3)cc2)CC1 [Example 366]

- EC50 [7]: 10 to 99.9 nM
SMILES: CC(C)C1CC2(CCN(C(=O)c3ccc(CC4CCC(C(O)c5ccccc5)N4)cc3)CC2)C(=O)O1 (single isomer, unassigned) [Example 568]

- EC50 [7]: 10 to 99.9 nM
SMILES: CC(c1cocn1)N1CCN(C(=O)c2ccc(CC3CCC(C(O)c4ccccc4)N3)cc2)CC1 (single isomer, unassigned) [Example 585]

- EC50 [4]: 10 to 99.9 nM
SMILES: O=C(c1ccc(C[C@@H]2CC[C@H]([C@H](O)c3ccccc3)N2)cc1)N1CCC(S(=O)(=O)c2ccccc2)CC1 [Example 127]

- EC50 (given as a range, cAMP, CHO cells, read-out: human β3 functional activity): 10 to 99.9 nM
SMILES: O=C(c1ccc(C[C@@H]2CC[C@H]([C@H](O)c3ccccc3)N2)cc1)N1CC2CC(n3cccn3)CC2C1 (stereo partly drawn) [Example 1, (R)-phenyl[(2R,5S)-5-(4-{[5-(1H-pyrazol-1-yl)hexahydrocyclopenta[c]pyrrol-2(1H)-yl]carbonyl}benzyl)pyrrolidin-2-yl]methanol]

- EC50 [4]: 10 to 99.9 nM
SMILES: CCOC(=O)C1CCN(C(=O)c2ccc(C[C@@H]3CC[C@H]([C@H](O)c4ccccc4)N3)cc2)CC1 [Example 118]

- EC50 [7]: 1 to 9.9 nM
SMILES: CC(c1ccn(C)n1)N1CCN(C(=O)c2ccc(CC3CCC(C(O)c4ccccc4)N3)cc2)CC1 (single isomer, unassigned) [Example 577]

SMILES: O=C(c1ccc(C[C@@H]2CC[C@H]([C@H](O)c3ccccc3)N2)cc1)N1C2CCC1CN(c1nccs1)C2 [Example 543]
- EC50 [6]: 10 to 99.9 nM

- EC50 [3]: 10 to 99.9 nM
SMILES: CC(C(=O)NCC1CCCO1)N1CCN(C(=O)c2ccc(C[C@@H]3CC[C@H]([C@H](O)c4ccccc4)N3)cc2)CC1 (some centres unmarked) [Example 455]

SMILES: O=C(c1ccc(C[C@@H]2CC[C@H]([C@H](O)c3ccccc3)N2)cc1)N1CC2CCC(C1)N2Cc1ccccn1 [Example 535]
- EC50 [6]: 100 to 999 nM

- EC50 [1]: 10 to 99.9 nM
SMILES: O=C(c1ccc(C[C@@H]2CC[C@H]([C@H](O)c3ccccc3)N2)cc1)N1CCC2(CCc3cnoc32)CC1 [Example 322]

- EC50 [3]: 100 to 999 nM
SMILES: CC(C)CCNC(=O)C(C)N1CCN(C(=O)c2ccc(C[C@@H]3CC[C@H]([C@H](O)c4ccccc4)N3)cc2)CC1 (some centres unmarked) [Example 438]

- EC50 [2]: 100 to 999 nM
SMILES: Cc1nnc(C(C)N2CCN(C(=O)c3ccc(C[C@@H]4CC[C@H]([C@H](O)c5ccccc5)N4)cc3)CC2)o1 (some centres unmarked) [Example 424]

- EC50 [2]: 100 to 999 nM
SMILES: O=C(O)c1ccccc1N1CCN(C(=O)c2ccc(C[C@@H]3CC[C@H]([C@H](O)c4ccccc4)N3)cc2)CC1 [Example 350]

- EC50 [3]: 1 to 9.9 nM
SMILES: CC(C(=O)N1CCc2ccc(F)cc2C1)N1CCN(C(=O)c2ccc(C[C@@H]3CC[C@H]([C@H](O)c4ccccc4)N3)cc2)CC1 (some centres unmarked) [Example 509]

- EC50 [3]: 10 to 99.9 nM
SMILES: CC(C(=O)NCCC1CC1)N1CCN(C(=O)c2ccc(C[C@@H]3CC[C@H]([C@H](O)c4ccccc4)N3)cc2)CC1 (some centres unmarked) [Example 448]

- EC50 [4]: < 1 nM
SMILES: O=C(c1ccc(C[C@@H]2CC[C@H]([C@H](O)c3ccccc3)N2)cc1)N1CCC(c2nnnn2C2CC2)CC1 [Example 110]

- EC50 [3]: 10 to 99.9 nM
SMILES: CC(C(=O)N1C(C)CCC1C)N1CCN(C(=O)c2ccc(C[C@@H]3CC[C@H]([C@H](O)c4ccccc4)N3)cc2)CC1 (some centres unmarked) [Example 479]

- EC50 [1]: 10 to 99.9 nM
SMILES: COc1ccc2c(n1)C1(CCN(C(=O)c3ccc(C[C@@H]4CC[C@H]([C@H](O)c5ccccc5)N4)cc3)CC1)OC2=O [Example 288]

- EC50 [2]: 10 to 99.9 nM
SMILES: CC(c1nnco1)N1CCN(C(=O)c2ccc(C[C@@H]3CC[C@H]([C@H](O)c4ccccc4)N3)cc2)CC1 (some centres unmarked) [Example 421]

- EC50 [7]: 1 to 9.9 nM
SMILES: O=C1CC(c2ccccc2)C2(CCN(C(=O)c3ccc(CC4CCC(C(O)c5cccnc5)N4)cc3)CC2)O1 (single isomer, unassigned) [Example 560]

- EC50 [4]: 1 to 9.9 nM
SMILES: O=C(c1ccc(C[C@@H]2CC[C@H]([C@H](O)c3ccccc3)N2)cc1)N1CCC(n2ncnn2)CC1 [Example 102]

- EC50 [3]: 10 to 99.9 nM
SMILES: CCCCN(C)C(=O)C(C)N1CCN(C(=O)c2ccc(C[C@@H]3CC[C@H]([C@H](O)c4ccccc4)N3)cc2)CC1 (some centres unmarked) [Example 514]

- EC50 [3]: 100 to 999 nM
SMILES: CC(C(=O)N1Cc2cncnc2C1)N1CCN(C(=O)c2ccc(C[C@@H]3CC[C@H]([C@H](O)c4ccccc4)N3)cc2)CC1 (some centres unmarked) [Example 483]

- EC50 [5]: 100 to 999 nM
SMILES: O=C(c1ccc(C[C@@H]2CC[C@H]([C@H](O)c3ccccc3)N2)cc1)N1Cc2cnn(C(F)(F)F)c2C1 [Example 30]

- EC50 [7]: 100 to 999 nM
SMILES: O=C1CC(c2ccccc2)C2(CCN(C(=O)c3ccc(CC4CCC(C(O)c5cccnc5)N4)cc3)CC2)O1 (single isomer, unassigned) [Example 559]

- EC50 [3]: 1 to 9.9 nM
SMILES: CC(C(=O)N1CCc2ccc(Cl)cc2C1)N1CCN(C(=O)c2ccc(C[C@@H]3CC[C@H]([C@H](O)c4ccccc4)N3)cc2)CC1 (some centres unmarked) [Example 510]

- EC50 [4]: 100 to 999 nM
SMILES: Cn1cnnc1C1CCN(C(=O)c2ccc(C[C@@H]3CC[C@H]([C@H](O)c4ccccc4)N3)cc2)CC1 [Example 98]

- EC50 [1]: 1 to 9.9 nM
SMILES: O=C1CC(c2ccccc2)C2(CCN(C(=O)c3ccc(C[C@@H]4CC[C@H]([C@H](O)c5ccccc5)N4)cc3)CC2)O1 (some centres unmarked) [Example 280]

- EC50 [2]: 10 to 99.9 nM
SMILES: CC(c1nn[nH]n1)N1CCN(C(=O)c2ccc(C[C@@H]3CC[C@H]([C@H](O)c4ccccc4)N3)cc2)CC1 (some centres unmarked) [Example 423]
